Data taken from US12497614B2, “Compositions and methods for editing beta-globin for treatment of hemaglobinopathies” (Vertex Pharmaceuticals Incorporated, priority 2020, dated 2025).

Assays:
[1] = system: NBSGW mice; experiment: Engraftment and persistence of gene-editing after in vivo administration of CD34+ HSPCs edited with T107 RNP, AAV.310 and Compound 984 (Example 14); parameters: species or system mouse; conditions: 16 weeks; T107 RNP+AAV.310 in the presence of Compound 984
Procedure: (§1) The cells were electroporated and immediately plated in medium only or medium containing Compound 984 at 3 μM. […] Genomic DNA was harvested from edited cells and used to evaluate HDR efficiency by […] as described in Example 1.
(§2) Following two days of in vitro culture, HSPCs were administered by intravenous injection to NBSGW mice at a dose of 0.5×10^6 cells per mouse. Recipient mice were treated with sublethal irradiation (100 cGy) at 1 day prior to administration of HSPCs. […] In total three independent replicates of the study were performed.
(§3) Bone marrow and peripheral blood was extracted at 16 weeks following HSPC administration and evaluated for presence of human hematopoietic cells using flow cytometry as described in Example 2. The percent chimerism (percentage of human CD45+ cells relative total cells expressing human CD45 or mouse CD45) in mouse bone marrow and peripheral blood is respectively shown in FIGS. 14A-14B.
(§4) Additionally, the lineage of human CD45+ cells was determined using markers for human B cells, T cells, myeloid cells, and HSPCs as described in Example 2.
(§5) The long term persistence of edits in the HBB gene present in HSPCs administered to each mouse cohorts was evaluated in genomic DNA extracted from bone marrow collected at 16 weeks. The frequency of donor template-encoded gene-edits in the HBB gene incorporated by HDR was quantified by NGS and is shown in FIG. 14D. […]

[2] = as above; parameters: species or system mouse; conditions: T107 RNP+AAV.310 in the presence of Compound 984 (3 μM)
Procedure: as §1, §2, §3, §4, §5

[3] = system: CD34+ HSPCs; experiment: Globin and hemoglobin analysis by HPLC on day 18 of differentiation (Example 5); type: cell-based, human; conditions: T107 RNP+AAV.310 alone or combined with the inhibitor
Procedure: Following editing, cells were differentiated to erythrocytes.
Additionally, on day 18 post-editing, expression of globin monomers was assessed in differentiated cells by HPLC as described in Example 3. […] Accordingly, the editing was sufficient to both introduce the SCD mutation in HBB and result in expression of sickle globin.
Furthermore, production of hemoglobin tetramers was also evaluated by HPLC. The analysis included quantification of HbS tetramer containing sickle-globin (α2β(E6V)2), HbF tetramer (α2γ2), HbA (α2β2), and HbA2 (α2δ2) produced by edited cells. […] Thus, the editing was also sufficient to alter hemoglobin output following in vitro differentiation.

[4] = system: HBB gene locus and mRNA transcribed from HBB in CD34+ HSPCs; experiment: Editing efficiency in genomic DNA and in HBB mRNA (Example 5); type: cell-based, human; conditions: genomic DNA, 48 hours post electroporation; 1 μM or 3 μM
Procedure: At 48 hours post electroporation genomic DNA was isolated from the edited cells and HDR to introduce the sickle mutation and INDEL frequencies were evaluated using next gene sequencing and computational analysis. On day 10 of differentiation, incorporation of the SCD mutation and frequency of INDELs present in mRNA transcribed from the HBB gene locus of edited cells was determined using RNA amplicon sequencing.

[5] = system: human HBB gene locus in CD34+ HSPCs; experiment: In vitro editing of HBB in CD34+ HSPCs with RNP and AAV donor template; HDR and INDELs by NGS (Example 1); type: cell-based; conditions: T107 RNP+AAV.320 with i53 (1 μg mRNA)
Procedure: Gene-editing of HBB was evaluated in CD34+ HSPCs. […] HSPCs were maintained in culture media containing IL-3 and were incubated at 37° C. under atmospheric conditions containing 5% carbon dioxide and 4% oxygen. […] To perform gene-editing, the cells were electroporated with RNP. Specifically, 1×10^6 cells were electroporated using the Maxcyte HSC-3 program with RNP containing 20 μg SpCas9 and 20 μg sgRNA (T107 or R02). AAV donor template was administered to cells prior to electroporation. Specifically, the cells were incubated with AAV (AAV.320 or AAV.323 respectively) at a dose of 10,000 MOI for one hour prior to electroporation.
Given efficiency of HDR repair is poor due to competition with other repair pathways (e.g., the NHEJ pathway), particularly in non-dividing or slowly dividing cells such as HSPCs, editing was also evaluated following treatment with molecules that inhibit targets in the NHEJ pathway, including 53BP1 and DNA-PK. […]
To evaluate HDR editing efficiency, genomic DNA was harvested from treated cells, and the frequency of the HBB allele encoding the expected gene edit (i.e., GAA encoding glutamate at position 6 downstream the HBB start codon (“E6”) for cells transduced with AAV.323 and silent mutations for cells transduced with AAV.320) was evaluated using a PCR amplification-based assay followed by next-generating sequencing (NGS). […]

[6] = system: HBB locus in CD34+ HSPCs; experiment: In vitro editing of HBB in CD34+ HSPCs with T223 RNP and AAV.321 (Example 9); type: cell-based, human; conditions: T223 RNP+AAV.321-edited cells treated with i53
Procedure: Gene-editing of HBB was evaluated using CD34+ HSPCs that were derived and maintained in culture as described in Example 1. HSPCs were subjected to gene-editing following two days of culture. To perform gene-editing, the cells were electroporated with RNP. Specifically, 5×10^6 cells were electroporated using the Maxcyte Buffer/HSC-3 program with RNP containing 20 μg SpCas9 and 20 μg sgRNA (T223 or R02). Cells were transfected with corresponding AAV donor template at a dose of 10,000 MOI (AAV.321 or AAV.323 respectively). The effect of 53BP1 inhibition and DNA-PK inhibitions on editing with RNP+AAV was also evaluated by treating cells with […] or 1 μg i53 mRNA+1 μM Nu7441.
The cells were cultured for two days following electroporation and prior to evaluation of editing efficiency. To evaluate editing efficiency, genomic DNA was harvested from edited cells, and frequency of HDR and frequency of INDELs at the predicted gRNA cut site was evaluated as described in Example 1.

Row | Compound | frequency of gene-edits in mouse bone marrow vs CD34+ HSPCs prior to transplantation [1] | frequency of gene-edits (HDR) in CD34+ HSPCs prior to transplantation [2] | HbA production compared to control cells [3] | HbS production compared to control cells [3] | expression of sickle-globin compared to control cells [3] | frequency of INDELs at the T107 cut site compared to cells edited with T107 RNP+AAV.310 only [4] | level of HDR repair compared to cells edited with T107 RNP+AAV.310 only [4] | HDR efficiency (donor-template-encoded gene-edit in HBB) [5] | frequency of INDELs at the T223 cut site [6] | frequency of genomic DNA incorporating the E6V gene-edit [6]
1 | [2H]c1nc(C)nc([2H])c1-c1cc(NC[C@@H](C)c2cccc3c(C(=O)NC)ccnc23)ncn1 [Compound 984] | comparable | approximately 45% | decreased | increased | increased | decreased | increased | – | – | –
2 | i53: polypeptide inhibitor of 53BP1 (SEQ ID NO: 11), introduced as an mRNA-encoded protein (ORF SEQ ID NO: 10) | – | – | decreased | increased | increased | – | – | approximately 25% | reduced | improved
